Measured values published in patent publication US20130017537A1, “METHOD OF IN-VITRO IMMUNOASSAY” (BASF Beauty Care Solutions France S.A.S., priority 2011, published 2013).

System: type V collagen in the ECM
Experiment: Influence of the lysis solution on the assay of type V collagen in the ECM
Assay type: cell-based, human
Conditions: repeat experiment, Table 3.2
Experimental: Thus, normal human fibroblasts obtained from abdominal biopsies were seeded in a 96-well plate and cultured in a defined medium (FGM) to 100% confluency.
After 48 hours of culture postconfluency at 37° C. under 0.5% CO2, the culture medium was collected.
The time of application of the lysis solution tested was 10 minutes at room temperature and with stirring.
The collagen V in the ECM was assayed directly on the ECM by using an anticollagen V antibody. A secondary antibody conjugated to europium was used with a detection reagent and the fluorescence was measured. (Delfia® kit—Perkin Elmer).
The experiment was repeated and the lysis solutions tested were as follows: • solution according to the invention NH4OH: 110 μl of an ammonium hydroxide solution at concentrations between 200 μM and 2 M. • Solution of monoethylamine at 20 Mm • Solution of diethylamine at 20 mM • Solution of triethylamine at 20 mM

Structure (SMILES) | Ratio: Coll/DNA % (NH4OH = 100) [%]
CCN(CC)CC [Triethylamine, triethylamine] | 21.13
CCNCC [Diethylamine, diethylamine] | 17.33
